# Measured values published in PubChem BioAssay AID504530 (Southern Research Specialized Biocontainment Screening …, 2011).
# Test system: human PBMC cytotoxicity, % cell control
# Assay: human PBMC cytotoxicity, dose response, cytotoxicity control for HIV-1 antiviral lead project, cell-based, primary PBMCs, TC50 (AID 504530)
row,SMILES,CC50
1,Cc1c2c(=O)n(-c3nc4ccccc4s3)nc-2cc(O)n1Cc1ccc(F)cc1,18.7 µM
2,Cc1c2c(=O)n(-c3nc4ccccc4s3)nc-2cc(O)n1CCc1ccc(O)cc1,2.11 µM
3,Cc1c2c(=O)n(-c3nc4ccccc4s3)nc-2cc(O)n1Cc1cccnc1,2.15 µM
4,Cc1c2c(=O)n(-c3nc4ccccc4s3)nc-2cc(O)n1C1CC1,2.6 µM
5,Cc1c2c(=O)n(-c3nc4ccccc4s3)nc-2cc(O)n1CCc1cccs1,71.2 µM
6,Cc1c2c(=O)n(-c3nc4ccccc4s3)nc-2cc(O)n1Cc1ccccc1Cl,38.9 µM
7,Cc1c2c(=O)n(-c3nc4ccccc4s3)nc-2cc(O)n1Cc1cccs1,25.7 µM
8,Cc1c2c(=O)n(-c3nc4ccccc4s3)nc-2cc(O)n1Cc1ccncc1,2.4 µM
9,Cc1c2c(=O)n(-c3nc4ccccc4s3)nc-2cc(O)n1CCC(C)C,41.1 µM
10,COc1ccccc1Cn1c(O)cc2nn(-c3nc4ccccc4s3)c(=O)c-2c1C,22 µM
11,COc1ccc(Cn2c(O)cc3nn(-c4nc5ccccc5s4)c(=O)c-3c2C)cc1,19.2 µM
12,COc1ccc(CCn2c(O)cc3nn(-c4nc5ccccc5s4)c(=O)c-3c2C)cc1,60 µM
